# Test results published in patent US5912183A, “Peptide inhibitors of mitogenesis and motogenesis” (Pharmacia & Upjohn S.p.A., priority 1993, dated 1999).
# Residues, ends and D or L forms follow the SMILES beside them.
# Assays:
# [1] = biological target: T1, GST-SH2 domain of Shc (Homo sapiens, UniProt P29353); experiment: BIAcore binding of Shc SH2 domain to immobilised phosphopeptides; conditions: biosensor; avidin-immobilized biotinylated phosphopeptide
# T1 construct: using the Shc SH2 domain, expressed in bacteria as a GST-fusion protein; made in house; host or cells: bacteria
# T1 sequence (P29353 488-579 limits assumed): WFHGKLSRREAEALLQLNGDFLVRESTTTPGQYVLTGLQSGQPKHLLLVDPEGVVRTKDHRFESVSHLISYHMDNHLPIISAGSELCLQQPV
# Protocol: FIG. 13. […] The same concentration of Shc-SH2 was injected over two biosensor surfaces on which two phosphopeptides had been immobilised. Y1356P is derived from the sequence VNATY^1356 VNVK (SEQ. ID NO: 28) of the receptor tail; Y317P is derived from the sequence DDPSY^317 VNVQ (SEQ. ID NO: 27). Note that both peptides contain the same core (YVNV) but (SEQ. ID NO: 3) different upstream sequences. The initial rapid increase in the response is due to the "bulk effect" of the injected solution.
# In vitro binding studies using GST-fusion protein. The region of the Grb2 cDNA corresponding to its SH2 domain (from nucleotide position 256 to nucleotide position 551) was isolated using polymerase chain reaction (PCR) and cloned into the BamHI-EcoRI sites of the bacterial expression plasmid pGEX-2T (GST-Grb2). Cultures of bacteria expressing GST, GST-Grb2 or GST-Shc (Segatto et al., Oncogene 2105-2112 (1993)) were grown for 3-4 hours at 37° C. in LB medium containing 1 mM IPTG. Bacteria were centrifuged, resuspended in 1/100 volume of ice-cold PY buffer, without Triton™ and lysed by sonication. After adding Triton X-100 to 1%, lysates were clarified by centrifugation. Recombinant proteins were purified onto glutathione Sepharose™ (Pharmacia) and used as such for binding assays. For each reaction, about 5 μg of GST, GST-Grb2 or GST-Shc bound to glutathione Seharose was incubated for 2 hrs. at 4° C. with […] of appropriate cell lysate made in PY buffer. Protein complexes were washed 5 times in ice cold PY buffer, eluted and denatured by heating at 95° C. for 3 min in Laemmli buffer, resolved on SDS-PAGE and analyzed by immunoblot.
# The basic principles of operation as well as the methodology for obtaining kinetic measurements of SH2 domain interactions using the BIAcore instrument (Pharmacia) have been previously described in detail (Panayotou et al., Mol. Cell. Biol. 13: 3567-3576 (1993), Ponzetto et al., Mol. Cell. Biol. 13: 4600-4608 (1993)). Purified GST-SH2 domains or intact proteins were desalted in BIAcore running buffer (20 mM Hepes, pH 7.4, 150 mM NaCl, 3.4 mM EDTA, 0.005% Tween 20 and 4 mM DTT) and injected over avidin-immobilized, biotinylated phosphopeptides. The amount of phosphopeptides immobilized was normalized by measuring the binding of anti-phosphotyrosine antibodies. Association was measured over a range of protein concentrations and dissociation of bound material was allowed to occur either in buffer flow or upon injection of 20 μM competing, non-biotinylated phosphopetide. Peptide and protein concentrations were calculated by amino acid analysis on an Applied Biosystem amino acid analyzer.
# The direct interaction between the SH2 domain of Shc and phosphotyrosine Y^1349 or Y^1356 was confirmed by real-time Biosensor analysis (Panayotou et al., ibid; Felder et al., Mol. Cell. Biol. 13: 1449-1455 (1993)).
# The Shc sequence Y^317 VNV (SEQ. ID NO: 3) is identical to one of the two Shc binding sites present in the SF/HGF receptor (FIG. 8). […] The biosensor was used to compare binding of the Shc SH2 domain to the phosphopeptide DDPSY^317 VNVQ (SEQ. ID NO: 27), present on the Shc molecule, and to the phosphopeptide VNATY^1356 VNVK (SEQ. ID NO: 28), present on the SF/HGF receptor. […] Thus Shc-Shc association is not favoured in vivo, and the Shc phosphotyrosine residue Y^317 is available to bind other molecules, rather than to mediate the formation of concatamers.
# [2] = biological target: T2, Grb2 SH2 domain (Homo sapiens, UniProt P62993); experiment: BIAcore real-time binding of Grb2 GST-SH2 fusion protein to immobilized phosphopeptide
# T2 construct: corresponding to its SH2 domain (from nucleotide position 256 to nucleotide position 551); made in house; host or cells: bacteria (pGEX-2T)
# Protocol: FIG. 15. The Grb2 SH2 domain binds to the Y^317 docking site of Shc. Panel A: sensorgrams obtained by injection of a range of Gst-SH2.Grb2 concentrations over the immobilised phosphopeptide derived from the Shc sequence DDPSY^317 VNVQ (SEQ. ID NO: 27). Panel B: effect of competing peptide on the dissociation rate. At the end of the Grb2 injection, buffer or […] of non-biotinylated phosphopeptide were injected. Panel C: analysis of the data shown in panel A. The figure on the left is a plot of the rate of binding versus the relative response for the six different sensorgrams. In the figure on the right, the slopes of each line are plotted against the concentration: the new slope gives the value of the association rate constant.
# In vitro binding studies using GST-fusion protein. The region of the Grb2 cDNA corresponding to its SH2 domain (from nucleotide position 256 to nucleotide position 551) was isolated using polymerase chain reaction (PCR) and cloned into the BamHI-EcoRI sites of the bacterial expression plasmid pGEX-2T (GST-Grb2). Cultures of bacteria expressing GST, GST-Grb2 or GST-Shc (Segatto et al., Oncogene 2105-2112 (1993)) were grown for 3-4 hours at 37° C. in LB medium containing 1 mM IPTG. […] Protein complexes were washed 5 times in ice cold PY buffer, eluted and denatured by heating at 95° C. for 3 min in Laemmli buffer, resolved on SDS-PAGE and analyzed by immunoblot.
# The basic principles of operation as well as the methodology for obtaining kinetic measurements of SH2 domain interactions using the BIAcore instrument (Pharmacia) have been previously described in detail (Panayotou et al., Mol. Cell. Biol. 13: 3567-3576 (1993), Ponzetto et al., Mol. Cell. Biol. 13: 4600-4608 (1993)). […] Association was measured over a range of protein concentrations and dissociation of bound material was allowed to occur either in buffer flow or upon injection of 20 μM competing, non-biotinylated phosphopetide. Peptide and protein concentrations were calculated by amino acid analysis on an Applied Biosystem amino acid analyzer. […]
# [3] = tested on: binding of PI 3-kinase holoenzyme to HGF/SF receptor; experiment: Competition of phosphopeptides with PI 3-kinase holoenzyme (A549 cytosolic extracts) for association with recombinant HGF/SF receptor (PI 3-kinase activity assay); parameters: species or system human; conditions: phosphopeptide 10 μM; A549 cytosolic extracts; FIG. 3
# Protocol: FIG. 3. Inhibition of binding of PI 3-kinase holoenzyme to HGF/SF receptor by tyrosine-phosphorylated peptides. The phosphopeptides which efficiently out-competed p85 (FIG. 1) were assayed for the ability to interfere with binding of the PI 3-kinase holoenzyme to the HGF/SF receptor. Cytosolic extracts from three days-starved A549 cells were pre-incubated with each of the phosphopeptides (10 μM) prior to incubation with the immobilized recombinant HGF/SF receptor. The presence of receptor-associated PI 3-kinase in the immunocomplexes was determined by PI 3-kinase activity assay, as described in Materials and Methods of Example 4. The position of the phosphatidylinositol-3-phosphate (PIP) product of the PI 3-kinase reaction is indicated.
# In vitro association experiments. Sf9 cells expressing the recombinant HGF/SF receptor (approximately 4×10^6 cells/point) were lysed 36 hours after infection in buffer A (10 mM Tris-HCl buffer pH 7.5, 10% glycerol, 1% Triton X-100, 150 mM NaCl, 5 mM EDTA), supplemented with 0.2 mM phenyl-methylsulfonyl fluoride, 1 μg/ml leupeptin, 0.1 TIU/ml aprotinin and 1 μg/ml pepstatin. […]
# The presence of the p85 subunit of the PI 3-kinase in the receptor immunoprecipitate was determined by: i) labelling of the receptor and associated proteins with [γ-^32 P]ATP by in vitro kinase assay; ii) Western immunoblotting; iii) PI 3-kinase activity assay. […]
# [4] = biological target: T3, binding of p85 to HGF/SF receptor (Bos taurus, UniProt P23727); experiment: Competition of phosphopeptides with p85 for association with immobilized recombinant HGF/SF receptor (in vitro kinase assay readout); parameters: species or system human
# T3 construct: made in house; host or cells: Sf9 insect cells (baculovirus), for both p85 and the receptor
# Protocol: FIG. 1. Inhibition of binding of p85 to HGF/SF receptor by tyrosine-phosphorylated peptides. Recombinant HGF/SF receptor was purified by immunoprecipitation from baculovirus-infected Sf9 cells using a rabbit polyclonal antiserum and phosphorylated with cold ATP. Lysates of Sf9 cells expressing p85 were pre-incubated with each of the phosphopeptides (10 μM). The lysates were then allowed to associate with immobilized recombinant HGF/SF receptors. Following association the complex was washed and receptor-bound p85 was detected by an in vitro kinase assay, as described in Materials and Methods of Example 4. The phosphopeptides are identified by the number of the amino terminal tyrosine.
# FIG. 2. Inhibition of binding of p85 to HGF/SF receptor with different concentrations of tyrosine-phosphorylated peptides. The phosphopeptides which efficiently out-competed p85 binding to the HGF/SF receptor (FIG. 1) were used at increasing concentrations (10 nM, 100 nM, 1 μM from left to right) to define their relative affinities for p85. Conditions of the experiment were as in FIG. 1. Phosphopeptide 1365 was used as a negative control for p85 interaction.
# In vitro association experiments. Sf9 cells expressing the recombinant HGF/SF receptor (approximately 4×10^6 cells/point) were lysed 36 hours after infection in buffer A (10 mM Tris-HCl buffer pH 7.5, 10% glycerol, 1% Triton X-100, 150 mM NaCl, 5 mM EDTA), supplemented with 0.2 mM phenyl-methylsulfonyl fluoride, 1 μg/ml leupeptin, 0.1 TIU/ml aprotinin and 1 μg/ml pepstatin. Lysates were clarified at 15,000×g at 4° C. for 15 minutes and the supernatants immunoprecipitated after 2 hours incubation with anti-Met antibodies coupled to Protein A-Sepharose. Immunocomplexes were washed three times with buffer A, once with buffer B (10 mM Tris-HCl pH 7.4, 100 mM NaCl, 1 mM EDTA) and once with buffer C (25 mM 4-(2-hydroxyethyl)-1-piperazine-ethanesulfonic acid (HEPES) buffer pH 7.2, 100 mM NaCl, 5 mM MgCl2). Samples were pre-phosphorylated by incubation for 15 minutes at 25° C. in buffer C with 10 μM unlabelled ATP and then washed three times with cold buffer A supplemented with 1 mM sodium ortho-vanadate. Association between the immobilized receptor and the baculovirus-expressed p85 was carried out as previously described (Bardelli, A., et al., Oncogene 7: 1973-1978 (1992)). For the association experiments with the PI 3-kinase holoenzyme three days serum-starved A549 cells (approx. 2×10^6 cells/point) were used as a source of PI 3-kinase. A549 cells were Dounce-homogenized in MOPS buffer (20 mM 3-(N-morpholino)propanesulfonic acid) (pH 7.5), 1 mM MgCl2, 0.1 mM EDTA, 200 mM sucrose, 1 mM sodium ortho-vanadate), supplemented with 0.2 mM phenylmethylsulfonyl fluoride, 1 μg/ml leupeptin, 0.1 TIU/ml aprotinin and 1 μg/ml pepstatin. Homogenates were centrifuged at 100,000×g for 20 minutes at 4° C. When checking for the ability of phosphopeptides to block the association with the receptor, cell lysates were pre-incubated with the phosphopeptides for 1 hour at 4° C. prior to incubation with the immobilized recombinant HGF/SF receptor. Following association, immunocomplexes were washed three times with buffer A, twice with buffer D (0.5M LiCl, 100 mM Tris-HCl pH 7.6), and twice with buffer B.
# The presence of the p85 subunit of the PI 3-kinase in the receptor immunoprecipitate was determined by: i) labelling of the receptor and associated proteins with [γ-^32 P]ATP by in vitro kinase assay; ii) Western immunoblotting; iii) PI 3-kinase activity assay.
# In vitro kinase assay. Receptor-associated proteins were labelled in 20 μl of buffer C, in the presence of 10 μCi [γ-^32 P]ATP (specific activity 7,000 Ci/Mm; Amersham) at 25° C. for 15 minutes. The reaction was stopped by adding 1 ml of ice-cold Buffer A without protease inhibitors. Samples were washed three times with cold buffer A. The labelled immunocomplexes were eluted from Protein A-Sepharose in boiling Laemmli buffer. […]
# T2 sequence (P62993 60-152 limits assumed): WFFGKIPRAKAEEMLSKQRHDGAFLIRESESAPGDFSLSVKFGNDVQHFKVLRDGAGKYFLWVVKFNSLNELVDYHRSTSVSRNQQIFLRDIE
# T3 sequence (P23727 whole entry): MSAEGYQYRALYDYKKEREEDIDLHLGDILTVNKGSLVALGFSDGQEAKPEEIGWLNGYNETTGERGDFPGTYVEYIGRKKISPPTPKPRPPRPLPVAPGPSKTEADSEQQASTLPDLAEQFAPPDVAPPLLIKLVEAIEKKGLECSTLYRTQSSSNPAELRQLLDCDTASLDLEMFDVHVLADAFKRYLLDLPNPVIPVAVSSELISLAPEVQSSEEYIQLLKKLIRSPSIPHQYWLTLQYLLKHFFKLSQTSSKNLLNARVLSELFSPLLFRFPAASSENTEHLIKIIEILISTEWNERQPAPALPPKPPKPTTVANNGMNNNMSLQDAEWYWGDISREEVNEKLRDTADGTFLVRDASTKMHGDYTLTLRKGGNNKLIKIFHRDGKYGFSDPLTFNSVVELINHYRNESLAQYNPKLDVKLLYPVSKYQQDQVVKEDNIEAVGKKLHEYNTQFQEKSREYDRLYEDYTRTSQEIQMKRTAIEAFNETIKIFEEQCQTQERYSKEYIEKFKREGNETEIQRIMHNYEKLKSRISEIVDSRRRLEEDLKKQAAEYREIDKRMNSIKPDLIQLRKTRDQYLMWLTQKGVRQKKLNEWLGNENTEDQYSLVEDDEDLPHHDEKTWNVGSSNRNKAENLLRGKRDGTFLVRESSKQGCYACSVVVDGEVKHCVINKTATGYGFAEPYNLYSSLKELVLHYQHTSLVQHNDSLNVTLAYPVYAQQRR
structure (smiles),measurement,setting,value
"CC(C)[C@H](NC(=O)[C@H](CC(N)=O)NC(=O)[C@@H](NC(=O)[C@H](Cc1ccc(OP(=O)(O)O)cc1)NC(=O)[C@H](CO)NC(=O)[C@@H]1CCCN1C(=O)[C@H](CC(=O)O)NC(=O)[C@@H](N)CC(=O)O)C(C)C)C(=O)N[C@@H](CCC(N)=O)C(=O)O [DDPSY^317* VNVQ, H-Asp-Asp-Pro-Ser-Tyr*-Val-Asn-Val-Gln-OH] (HELM PEPTIDE1{D.D.P.S.[O=C([C@H](Cc1ccc(OP(=O)(O)O)cc1)N[*:1])[*:2]].V.N.V.Q}$$$$V2.0)",Binding of Shc SH2 domain to immobilised phosphopeptide,[1],much more weakly
same,kon,"[2]; Grb2 GST-SH2 over immobilized phosphopeptide, read-out: K^ass (association rate constant)",260000 M⁻¹ s⁻¹
same,Kd,"[2]; from Kdiss and K^ass, read-out: Overall affinity",153 nM
same,Kdiss (dissociation rate),[2]; measured in buffer and in the presence of competing phosphopeptide to prevent re-binding,0.04 S^-1
CC(C)[C@H](NC(=O)[C@H](CC(N)=O)NC(=O)[C@@H](NC(=O)[C@H](Cc1ccc(OP(=O)(O)O)cc1)NC(=O)[C@@H](NC(=O)[C@H](C)NC(=O)[C@H](CC(N)=O)NC(=O)[C@@H](NC(=O)[C@H](Cc1c[nH]cn1)NC(=O)[C@@H](NC(=O)[C@@H](N)Cc1ccc(OP(=O)(O)O)cc1)C(C)C)C(C)C)[C@@H](C)O)C(C)C)C(=O)N[C@@H](CCCCN)C(=O)O [H-Tyr*-Val-His-Val-Asn-Ala-Thr-Tyr*-Val-Asn-Val-Lys-OH] (HELM PEPTIDE1{[N[C@@H](Cc1ccc(OP(=O)(O)O)cc1)C(=O)[*:2]].V.H.V.N.A.T.[O=C([C@H](Cc1ccc(OP(=O)(O)O)cc1)N[*:1])[*:2]].V.N.V.K}$$$$V2.0),Interference with binding of PI 3-kinase holoenzyme to HGF/SF receptor,[3],more efficient at displacing the PI 3-kinase holoenzyme from the HGF/SF receptor than those including just one of these residues
same,Inhibition of binding of p85 to HGF/SF receptor,"[4]; phosphopeptide 10 μM, p85 from Sf9 lysates, FIG. 1",completely prevented p85 binding
same,Efficiency at outcompeting p85 (relative affinity for p85),"[4]; phosphopeptides at 10 nM, 100 nM, 1 μM, FIG. 2, rank order SEQ. ID NO: 19, then 22, 20, 18",comparable to H-Tyr*-Val-Asn-Val-Lys-Cys-Val-Ala-OH
